Experimental data as given in patent US8691187B2, “Imaging agents for detecting neurological disorders” (Eli Lilly and Company, priority 2009, dated 2014).

Key:
[1] = system: AD brain sections; assay: Fluorescent compound staining on human AD brain sections (self-fluorescence, overall binding); conditions: for binding of fluorescent compound to AD brain sections confirmed by immunostaining with tau or Aβ antibodies: figure legends, double labeling at 100 uM; for Brain Section Staining: fluorescence: Table 1 quinolines, 100 uM compound
From the text: (§1) Native forms of tau (various isoforms, hyperphosphorylated) and amyloid aggregates are present in brain sections and therefore preferred for compound testing. Using the self-fluorescence of a test compound can give an indication of whether the compound binds to tau tangles/PHFs and/or amyloid plaques. This is further confirmed by immunostaining with Aβ and tau antibodies and overlaying the images. […] However, it is possible to “rate” the signal strength qualitatively and distinguish compounds that show binding to these aggregates.
(§2) In one of the embodiments of the present invention, the self-fluorescence of the compound of formula (I) is used to determine whether the compound binds to tau/amyloid in the brain sections and to give it a qualitative rating. The next step is to proceed to the autoradiography using different brain types for further evaluation and quantitation.
(§3) Tau fluorescent compounds staining on human brain sections (Double or triple labeled with tau and β-amyloid Immunohistochemistry (IHC))
(§4) Serial sections (6 μm thick) from OCT-embedded frozen blocks of front lobe were used for staining (OCT—optimal cutting temperature). After fixation and quenching of autofluorescence, tissue sections were incubated with in 100 μM of tau compound in 50% ethanol PBS for 60 min. Then sections were dipped briefly into water, rinsed in PBS, blocked with 5% normal horse serum in PBS for 1 hour at room temperature. After blocking, the tissue was incubated with tau or β-amyloid primary antibody at 4° C. overnight in a humid chamber. Next day, the sections were washed with PBS and then incubated with secondary antibody for 1 hour.

[2] = system: tau aggregates; assay: Fluorescent compound staining on human AD brain sections (tau IHC double labeling); type: binding; conditions: 100 uM compound, qualitative rating + to ++++ or words
From the text: as §1, §2, §3, §4

[3] = biological target: T1, Aβ plaques (Homo sapiens, UniProt P05067); assay: Fluorescent compound staining on human AD brain sections (β-amyloid IHC double labeling); type: binding; conditions: 100 uM compound, qualitative rating + to ++++ or words
T1 construct: Native forms of tau (various isoforms, hyperphosphorylated) and amyloid aggregates are present in brain sections; from tissue; host or cells: human AD brain, frozen frontal lobe sections
From the text: as §1, §2, §3, §4

T1 sequence (P05067 672-713 limits assumed): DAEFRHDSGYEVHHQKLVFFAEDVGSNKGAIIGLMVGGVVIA

| SMILES | Brain Section Staining: tau ([2]; Table 1 quinolines) | Brain Section Staining: Ab (amyloid) ([3]; Table 1 quinolines) | also measured |
| --- | --- | --- | --- |
| CNc1ccc(-c2ccn3c(n2)nc2ccccc23)cc1.O=C(O)C(F)(F)F.O=C(O)C(F)(F)F [Compound T522, 4-(Benzo[4,5]imidazo[1,2-a]pyrimidin-2-yl)-N-methylaniline bistrifluoracetate] |  |  | binding of fluorescent compound to AD brain sections confirmed by immunostaining with tau or Aβ antibodies [1]: total binding |
| FCCCNc1ccc(-c2ccn3c(n2)nc2ccccc23)cc1 [Compound T542, 4-(Benzo[4,5]imidazo[1,2-a]pyrimidin-2-yl)-N-(3-fluoropropyl)aniline] |  |  | binding of fluorescent compound to AD brain sections confirmed by immunostaining with tau or Aβ antibodies [1]: binding |
| Cl.Cl.FCCNc1ccc(-c2ccc3ccccc3n2)cc1 [Compound T411, N-(2-Fluoroethyl)-4-(quinolin-2-yl)aniline dihydrochloride] | binds to tau | weakly binds to Ab |  |
| FCCn1c(C#Cc2ccc3ccccc3n2)nc2ccccc21.O=C(O)C(F)(F)F [Compound T496] |  |  | Brain Section Staining: Ab (amyloid) ([3]; Table 2 acetylenes): Weakly binds to Ab |
| CNc1ccc(C#Cc2nc3ccc(O)cc3s2)cc1F [T118/ W366, 2-((3-fluoro-4-(methylamino)phenyl)ethynyl)benzo[d]thiazol-6-ol] |  |  | Brain Section Staining: Ab (amyloid) ([3]; Table 2 acetylenes): binds to Ab |
| FCCOCCOCCNc1ccc(-c2ccc3ccccc3n2)cc1 [Compound T442] | binds to Tau and Ab | binds to Tau and Ab |  |
| COc1ccc2nc(-c3ccc(N)c(F)c3)ccc2c1 [Compound T467, 2-Fluoro-4-(6-methoxyquinolin-2-yl)aniline] | binds to tau and amyloid | binds to tau and amyloid |  |
| CNc1ccc(-c2ccc3ccccc3n2)cc1F [Compound T458] | binds to amyloid and tau | binds to amyloid and tau |  |
| CN(C)c1ccc(/C=C/c2cnc3ccccc3n2)cc1 [Compound T475] |  | binds to Ab mostly |  |
| CN(C)c1ccc(/C=C/c2ccc3cc(F)ccc3n2)cc1 [Compound T429] |  | binds to Ab |  |
| FCCCNc1ccc(C#Cc2nc3ccccc3[nH]2)cc1 [Compound T465, 4-((1H-Benzo[d]imidazol-2-yl)ethynyl)-N-(3-fluoropropyl)aniline] |  |  | Brain Section Staining: tau ([2]; Table 2 acetylenes): binds to tau and Ab; Brain Section Staining: Ab (amyloid) ([3]; Table 2 acetylenes): binds to tau and Ab |
| Nc1ccc(-c2ccc3ccccc3n2)cc1F [Compound T445, 2-Fluoro-4-(quinolin-2-yl) aniline] | binds to Tau |  |  |
| Cn1c(C#Cc2ccc(NCCCF)cc2)nc2ccccc21 [Compound T540, N-(3-Fluoropropyl)-4-((1-methyl-1H-benzo[d]imidazol-2-yl)ethynyl)aniline] |  |  | binding of fluorescent compound to AD brain sections confirmed by immunostaining with tau or Aβ antibodies [1]: binding |
| FCCCNc1ccc(C#Cc2ccc3ccccc3n2)cc1 [Compound T454, N-(3-Fluoropropyl)-4-(quinolin-2-ylethynyl)aniline] |  | binds to Ab | Brain Section Staining: Ab (amyloid) ([3]; Table 2 acetylenes): binds to Ab |
| FCCOCCOCCn1c(C#Cc2cnc3[nH]ccc3c2)nc2ccccc21.O=C(O)C(F)(F)F [Compound T527] |  |  | binding of fluorescent compound to AD brain sections confirmed by immunostaining with tau or Aβ antibodies [1]: binding |
| Nc1ccc(-c2ccnc3nc4ccccc4n23)cc1 [Compound T520, 4-(Benzo[4,5]imidazo[1,2-a]pyrimidin-4-yl)aniline] |  |  | binding of fluorescent compound to AD brain sections confirmed by immunostaining with tau or Aβ antibodies [1]: binding |
| CNc1ccc(-c2cnc3ccccc3c2)cc1 [Compound T477, N-Methyl-4-(quinolin-3-yl)aniline] |  | binds to Ab mostly |  |
| Fc1ccc(C#Cc2ccc3scnc3c2)cn1 [T114/ W313] |  |  | Brain Section Staining: tau ([2]; Table 2 acetylenes): stains amyloid and tau; Brain Section Staining: Ab (amyloid) ([3]; Table 2 acetylenes): stains amyloid and tau |
| CNc1ccc(-c2cc(F)c3ccccc3n2)cc1 [Compound T466, 4-(4-fluoroquinolin-2-yl)-N-methylaniline] | binds to tau and amyloid | binds to tau and amyloid |  |
| COc1ccc2nc(-c3ccc(N(C)C)cc3)ccc2c1 [Compound T139, 4-(6-Methoxyquinolin-2-yl)-N,N-dimethylaniline] | binds to amyloid and Tau | binds to amyloid and Tau |  |

| SMILES | Brain Section Staining: tau ([2]; Table 1 quinolines) | Brain Section Staining: Ab (amyloid) ([3]; Table 1 quinolines) | also measured |
| --- | --- | --- | --- |
| [N-]=[N+]=NCCOCCOCCNc1ccc(-c2ccc3ccccc3n2)cc1 [Compound T412] | binds to tau | not to amyloid |  |
| Cn1ccc2cc(-c3ccc4ccccc4n3)ccc21 [Compound T453, 2-(1-Methyl-1H-indol-5-yl)quinoline] |  | binds to Ab |  |
| CNc1ccc(C#Cc2nc3cc(OC)ccc3s2)cc1F [Compound T448] |  |  | Brain Section Staining: Ab (amyloid) ([3]; Table 2 acetylenes): binds to Ab |
| CN(C)CCNc1cc(-c2ccccc2)nc2ccccc12 [Compound T048] |  | binds to Ab (amyloid) (100 uM) |  |
| COc1ccc2nc(-c3ccc(N4CCN(CCCF)CC4)cc3)ccc2c1 [Compound T499, 2-(4-(4-(3-Fluoropropyl)piperazin-1-yl)phenyl)-6-methoxyquinoline] |  |  | binding of fluorescent compound to AD brain sections confirmed by immunostaining with tau or Aβ antibodies [1]: binding |
| CN(C)c1ccc(-c2cc(F)c3ccccc3n2)cc1 [Compound T484, 4-(4-Fluoroquinolin-2-yl)-N—N-dimethylaniline] | binds to Tau | binds to Tau and Ab |  |
| FCCCNc1ccc(-c2ccnc3nc4ccccc4n23)cc1 [Compound T544, 4-(Benzo[4,5]imidazo[1,2-a]pyrimidin-4-yl)-N-(3-fluoropropyl)aniline] |  |  | binding of fluorescent compound to AD brain sections confirmed by immunostaining with tau or Aβ antibodies [1]: binding |
| Cn1cnc2ccc(-c3cc(F)c4ccccc4n3)cc21 [Compound T485, 4-Fluoro-2-(1-methyl-1H-benzo[d]imidazol-6-yl)quinoline 2,2,2-trifluoroacetate] |  | weakly binds to Ab |  |
| FCCOCCOCCOc1ccc2nc(-c3ccc(N4CCOCC4)cc3)ccc2c1 [Compound T549, 4-(4-(6-(2-(2-(2-Fluoroethoxy)ethoxy)ethoxy)quinolin-2-yl)phenyl)morpholine] | Binds to Tau |  |  |
| CN1CCN(c2ccc(-c3cc(F)c4ccccc4n3)cc2)CC1 [Compound T559] |  |  | Brain Section Staining: fluorescence [1]: No fluorescence |
| FCCOCCOCCNc1ccc(-c2ccc3ccccc3n2)cn1 [Compound T525, N-(2-(2-(2-Fluoroethoxy)ethoxy)ethyl)-5-(quinolin-2-yl)pyridin-2-amine] |  |  | binding of fluorescent compound to AD brain sections confirmed by immunostaining with tau or Aβ antibodies [1]: binding |
| CNc1ccc(C#Cc2nc3ccccc3n2CCOCCOCCF)cc1.O=C(O)C(F)(F)F [Compound T541] |  |  | binding of fluorescent compound to AD brain sections confirmed by immunostaining with tau or Aβ antibodies [1]: binding |
| CNc1ccc(-c2ccc3cc(OC)ccc3n2)cc1F.Cl.Cl [Compound T483, 2-Fluoro-4-(6-methoxyquinolin-2-yl)-N-methylaniline dihydrochloride] | Mostly binds to Tau |  |  |
| CN(C)c1ccc(-c2ccc3cc(O)ccc3n2)cc1 [Compound T531] | Binds to Tau |  |  |
| CNc1ccc(-c2ccc3cc(OCCF)ccc3n2)cc1.Cl.Cl [Compound T409] |  | binds to amyloid |  |
| CN1CCN(c2ccc(-c3ccc4cc(OCCOCCOCCF)ccc4n3)cc2)CC1 [Compound T550, 6-(2-(2-(2-Fluoroethoxy)ethoxy)ethoxy)-2-(4-(4-methylpiperazin-1-yl)phenyl)quinoline] | Binds to Tau |  |  |
| CN(C)c1ccc(-c2ccc3ccccc3n2)cn1 [Compound T125, N,N-Dimethyl-5-(quinolin-2-yl)pyridin-2-amine] | staining shows strong binding to tau |  |  |
| CNc1ccc(-c2cc3ccccc3cn2)cc1.Cl [Compound T501, 4-(Isoquinolin-3-yl)-N-methylaniline] |  |  | Brain Section Staining: fluorescence [1]: No fluorescence |
| Fc1ccc(-c2ccc3ccccc3n2)cn1 [Compound T455, 2-(6-Fluoropyridin-3-yl)quinoline] |  |  | Brain Section Staining: fluorescence [1]: No fluorescence |
| FCCOCCOCCOc1ccc2nc(-c3ccc(N4CCOCC4)nc3)ccc2c1 [Compound T539, 4-(5-(6-(2-(2-(2-Fluoroethoxy)ethoxy)ethoxy)quinolin-2-yl)pyridin-2-yl)morpholine] |  |  | binding of fluorescent compound to AD brain sections confirmed by immunostaining with tau or Aβ antibodies [1]: binding |
